12 molecules from ChEMBL document CHEMBL4184119, “Identification of 2-thioxoimidazolidin-4-one derivatives as novel noncovalent proteasome and immunoproteasome inhibitors” (Bioorg Med Chem Lett, 2018) can be followed below.

For test [1], the target named is T1, Proteasome Macropain subunit MB1 (Homo sapiens) (UniProt P28074).
T1 sequence (whole entry): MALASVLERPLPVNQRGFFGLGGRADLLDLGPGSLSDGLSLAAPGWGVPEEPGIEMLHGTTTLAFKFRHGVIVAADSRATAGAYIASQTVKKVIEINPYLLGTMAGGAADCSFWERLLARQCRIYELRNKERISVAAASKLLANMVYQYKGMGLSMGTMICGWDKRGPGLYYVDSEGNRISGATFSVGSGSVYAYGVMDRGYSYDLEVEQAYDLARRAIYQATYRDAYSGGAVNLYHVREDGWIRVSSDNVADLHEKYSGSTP
The test is described as follows: Inhibition of 20s immunoproteasome beta5 chymotrypsin-like activity in human spleen using Suc-Leu-Leu-Val-Tyr-AMC as substrate at 50 uM after 10 mins by fluorescence assay relative to control.

For test [2], the target named is T2, Proteasome component C5 (Homo sapiens) (UniProt P20618).
T2 sequence (whole entry): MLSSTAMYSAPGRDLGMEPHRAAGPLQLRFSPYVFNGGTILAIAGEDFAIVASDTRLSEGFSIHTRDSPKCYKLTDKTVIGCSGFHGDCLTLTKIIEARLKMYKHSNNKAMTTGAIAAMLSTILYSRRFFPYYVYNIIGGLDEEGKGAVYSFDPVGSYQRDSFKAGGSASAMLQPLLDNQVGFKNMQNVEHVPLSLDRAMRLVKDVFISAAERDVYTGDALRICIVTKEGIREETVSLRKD
The test is described as follows: Inhibition of 20s constitutive proteasome beta1 caspase-like activity in human erythrocytes using Z-Leu-Leu-Glu-AMC as substrate at 50 uM after 10 mins by fluorescence assay relative to control. It counts as cell-based.

Test [3] concerns the target T1, Proteasome Macropain subunit MB1 (Homo sapiens). The test is described as follows: Inhibition of 20s constitutive proteasome beta5 chymotrypsin-like activity in human erythrocytes using Suc-Leu-Leu-Val-Tyr-AMC as substrate at 50 uM after 10 mins by fluorescence assay relative to control. It is filed as cell-based.
The target in test [4] is Proteasome Macropain subunit (Homo sapiens) (UniProt P49721). The test is described as follows: Inhibition of 20s constitutive proteasome beta2 trypsin-like activity in human erythrocytes using Boc-Leu-Arg-Arg-AMC as substrate at 50 uM after 10 mins by fluorescence assay relative to control. It is filed as cell-based.
Test [5] in a line: Growth inhibition of human MM1R cells after 24 hrs by MTT assay. It is filed as functional. The conditions noted are these: MM.1R.
Test [6] addresses Proteasome Macropain subunit (Homo sapiens) (UniProt P49721). The test is described as follows: Inhibition of 20s immunoproteasome beta2 trypsin-like activity in human spleen using Boc-Leu-Arg-Arg-AMC as substrate at 50 uM after 10 mins by fluorescence assay relative to control.
In test [7] the target is T1, Proteasome Macropain subunit MB1 (Homo sapiens). The test is described as follows: Selectivity ratio of inhibitory concentration for 20s constitutive proteasome beta5 chymotrypsin-like activity in human erythrocytes to Ki for 20s immunoproteasome beta5 chymotrypsin-like activity in human spleen. It is filed as cell-based.
Test [8] shares this target. The test is described as follows: Reversible inhibition of 20s constitutive proteasome beta5 chymotrypsin-like activity in human erythrocytes using Suc-Leu-Leu-Val-Tyr-AMC as substrate at 50 uM preincubated for 30 mins followed by compound dilution measured after 30 mins by fluorescence assay. It counts as cell-based.
For test [9], the target named is T3, Proteasome Macropain subunit MB1 (Homo sapiens, UniProt P28074).
T3 sequence (P28074 whole entry): T1 sequence (whole entry)
The test is described as follows: Inhibition of 20s constitutive proteasome beta5 chymotrypsin-like activity in human erythrocytes using Suc-Leu-Leu-Val-Tyr-AMC as substrate after 10 mins by fluorescence assay.

Calls of active or inactive are those of the source. The calls are words filed in the database; no cut-off is given here.

Proteasome Macropain subunit (Homo sapiens), sequence (P49721 whole entry): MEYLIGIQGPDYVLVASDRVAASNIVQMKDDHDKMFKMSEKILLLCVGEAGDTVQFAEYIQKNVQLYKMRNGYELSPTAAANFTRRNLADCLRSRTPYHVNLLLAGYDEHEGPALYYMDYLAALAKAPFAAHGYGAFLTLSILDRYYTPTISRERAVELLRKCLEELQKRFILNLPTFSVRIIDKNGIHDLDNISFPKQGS

As for `CSc1ccc(/C=C2\NC(=S)N(c3ccccc3)C2=O)cc1`, the inhibition in test [1] worked out at 50%; in test [2], 59%; in test [3] it was 28%.

As for `COc1ccc(/C=C2\NC(=S)N(c3ccccc3)C2=O)cc1`, the inhibition in test [4] amounted to 35%; in test [2], 56%; in [3], 45%; in test [6] it was 29%. The molecule also yielded an IC50 in test [5] of 19.4 µM.

On to `O=C1CNC(=S)N1c1ccccc1`, for which the inhibition result in test [4] and in test [6] was “inactive” each time. Moreover, the values for the inhibition in [1], in test [2] and in test [3] were 53%, 32% and 47%, respectively.

`CC(C)CC(NC(=O)[C@H](CC(C)C)NC(=O)OCc1ccccc1)C(=O)N[C@H](C=O)CC(C)C` (single isomer, unassigned) [MG-132] yielded an IC50 in test [5] of 14.4 µM.

In the case of `COc1ccc(/C=C2\NC(=S)N(c3ccccc3)C2=O)cc1OC`, the inhibition in [4] was 29%; in test [2], 58%; in [6], 50%. Besides, the IC50 in test [5] was determined as 36.7 µM. Further, in [7], the Ratio turned out to be 7. The inhibition entry in test [8] is “Active”. In test [9], this molecule gave a Ki of 13.6 µM.

As to `O=C1CNC(=S)N1c1cccc2ccccc12`, the results for the inhibition in [4] and in test [2] were 38% and 47%, respectively. The inhibition result in [1], in test [3] and in test [6] was “inactive” throughout.

As for `O=C1/C(=C/c2ccc(Oc3ccccc3)cc2)NC(=S)N1c1ccccc1`, the inhibition in test [4] was 5%; in [1] it was 58%; in [3], 13%; in [6], 53%. The inhibition result in test [2] was “inactive”.

For the molecule `COc1cccc(/C=C2\NC(=S)N(c3ccccc3)C2=O)c1`, the inhibition came to 36% in test [4], 52% in test [2] and 18% in test [6]. The molecule also registered an IC50 in test [5] of 25.9 µM. The molecule also returned a Ki in [9] of 17.9 µM.

As for `COc1ccc(/C=C2\NC(=S)N(c3ccccc3)C2=O)cc1O`, the inhibition came out at 37% in test [4], 28% in [2], 45% in test [3] and 45% in test [6]. Also, in test [5], the IC50 stood at 40.7 µM. In addition, the Ratio in test [7] amounted to 20.

Regarding `O=C1/C(=C/c2cccc(Oc3ccccc3)c2)NC(=S)N1c1ccccc1`, the inhibition result in [4] and in test [2] was “inactive” throughout. In addition, the inhibition amounted to 56% in [1], 39% in test [3] and 32% in test [6].

Take `O=C1/C(=C/c2ccc(Oc3ccccc3)cc2)NC(=S)N1c1cccc2ccccc12`: the inhibition in test [4] is 57%; in test [1], 56%; in test [3], 20%.

With `COc1cc(/C=C2\NC(=S)N(c3ccccc3)C2=O)ccc1O`, the inhibition is 32% in [4] and 54% in test [2]. The same molecule showed an IC50 in test [5] of 20.2 µM. This molecule also yielded a Ki in test [9] of 23.6 µM.

Broadly, the inhibition is the drop in the measured response relative to a control, in per cent. What is called IC50 is the midpoint of a concentration-inhibition curve. As usually defined, the Ki is the equilibrium dissociation constant of an inhibitor or competing ligand from its target. A lower Ki goes with higher affinity.
